Measurements reported in patent publication US10029986B2, “Alkynyl pyridine-substituted amide compound and pesticide” (NISSAN CHEMICAL INDUSTRIES, LTD., priority 2014, dated 2018).

Tests used:
Botrytis cinerea [1] = assay: Test on the preventive effect against cucumber gray mold (spore inoculation); format: in vivo; conditions: 72 h, test solution A 500 ppm, 5 ml per pot, cucumber cut leaves, conidium inoculation, 3 days at 20° C.
Protocol: Compounds of the present invention were dissolved in a solvent for emulsion (a mixture of Sorpol (registered trademark) 3005XL (manufactured by Toho Chemical Industry Co., Ltd.): N-methylpyrrolidone: Solvesso (registered trademark) 200 (manufactured by ExxonMobil Chemical) in a ratio of 1:5:2) to prepare 20 wt % emulsifiable concentrates. Then, distilled water was added to dilute the emulsifiable concentrates to the prescribed concentration (500 ppm), and the obtained solutions were used in the following the Test Examples 1 to 8. Cucumber (varieties: Sagami Hanjiro) was seeded in 90 cm^3 plastic pot, and at the cotyledon stage, 5 ml per pot of test solution A of the compounds of the present invention was applied. After drying in air, the treated leaves were cut and transferred in plastic containers. 30 μl of a mixture of a suspension of conidium of Botrytis cinerea and a dissolved PDA medium in a ratio of 1:1 was dropped on each treated leaf and inoculated. After the inoculation, the plastic containers were placed in 20° C. with humid conditions for 3 days, and the proportion of the formed lesion in the inoculated leaves were counted to calculate the control value in accordance with the same formula as in the Test Example 1. The test was carried out in duplicate.

Botrytis cinerea [2] = assay: Test on the preventive effect against cucumber gray mold (mycelium inoculation); format: in vivo; conditions: 48 h, test solution A 500 ppm, 5 ml per pot, cucumber cotyledon, agar block inoculation, 2 days at 20° C.
Protocol: Compounds of the present invention were dissolved in a solvent for emulsion (a mixture of Sorpol (registered trademark) 3005XL (manufactured by Toho Chemical Industry Co., Ltd.): N-methylpyrrolidone: Solvesso (registered trademark) 200 (manufactured by ExxonMobil Chemical) in a ratio of 1:5:2) to prepare 20 wt % emulsifiable concentrates. Then, distilled water was added to dilute the emulsifiable concentrates to the prescribed concentration (500 ppm), and the obtained solutions were used in the following the Test Examples 1 to 8. Cucumber (varieties: Sagami Hanjiro) was seeded in 90 cm^3 plastic pot, and at the cotyledon stage, 5 ml per pot of test solution A of the compounds of the present invention was applied. On the next day, the pot was transferred in a plastic container, and an agar blocks (diameter: 5 mm) containing Botrytis cinerea which was preliminarily cultivated in a PDA medium was inoculated on the cotyledon of the cucumber treated with the solution. After the inoculation, the plastic container was covered with a plastic sheet, then placed at 20° C. and humidified for 2 days. Thus the proportion of the formed lesion in the inoculated leaves were measured to calculate the control value in accordance with the same formula as in the Test Example 1. The test was carried out in duplicate.

[3] = system: Southern root-knot nematode (Meloidogyne incoqnita); assay: Insecticidal test against Southern root-knot nematode (eggs, 96 well plate); format: in vivo; conditions: 96 h, test solution B 100 ppm, 10 μl per well, 25° C. dark, 4 days after treatment, read-out: efficacy (unhatched eggs + inactive larvae relative to non-treated)
Protocol: Compounds of the present invention were dissolved in dimethyl sulfoxide to prepare 1 wt % solutions. Then, distilled water was added to dilute the solutions to the prescribed concentration (100 ppm), and the obtained solutions were used in the following the Test Examples 9 to 12. 60 μl of a potato dextrose 1% agar medium was added to each well of a 96 well plate, and 30 μl of sterilized water containing eggs of Southern root-knot nematode (Meloidogyne incoqnita) (10 eggs/3 μl) was added to each well. Further, 10 μl per well of test solution B of the compounds of the present invention was added, and the plate was left at rest at 25° C. under dark conditions.

Puccinia recondita = assay: Test on the preventive effect against wheat leaf rust; format: in vivo; conditions: 216 h, test solution A 500 ppm, 5 ml per pot, wheat 1.3-leaf stage, 1 day inoculation chamber then 8 days at 20° C.
Protocol: Compounds of the present invention were dissolved in a solvent for emulsion (a mixture of Sorpol (registered trademark) 3005XL (manufactured by Toho Chemical Industry Co., Ltd.): N-methylpyrrolidone: Solvesso (registered trademark) 200 (manufactured by ExxonMobil Chemical) in a ratio of 1:5:2) to prepare 20 wt % emulsifiable concentrates. Then, distilled water was added to dilute the emulsifiable concentrates to the prescribed concentration (500 ppm), and the obtained solutions were used in the following the Test Examples 1 to 8. Wheat (varieties: Norin 61) was seeded in 90 cm^3 plastic pot, and at 1.3-leaf stage, 5 ml per pot of test solution A of the compounds of the present invention was applied. One day after treatment, a suspension of spores of Puccinia recondita was sprayed to the wheat, and the pot was left in the inoculation chamber at 20° C. under humidity of 100% RH for 1 day. Thereafter, the pot was placed in an air-conditioned greenhouse (20° C.) for 8 days. The proportion of the formed lesion in the inoculated leaves were counted to calculate the control value in accordance with the same formula as in the Test Example 1. The test was carried out in duplicate.

Row | Compound | pest or weed control at 500 µg/mL (Botrytis cinerea [1]) | pest or weed control at 500 µg/mL (Botrytis cinerea [2]) | pest or weed control at 100 µg/mL [3] | melting point | pest or weed control at 500 µg/mL (Puccinia recondita)
1 | CC(C)(C)C#Cc1cnc(CCNC(=O)c2ccccc2C(F)(F)F)c(Cl)c1 [1-003, N-[2-[3-chloro-5-(3,3-dimethyl-1-butynyl)pyridin-2-yl]ethyl]-2-(trifluoromethyl)benzamide] | ≥ 70% | ≥ 70% | ≥ 50% | 90 to 92 °C | –
2 | CC(CNC(=O)c1ccccc1C(F)(F)F)c1ncc(C#CC2CC2)cc1Cl (centres unmarked) [1-007, N-[2-[3-chloro-5-(cyclopropylethynyl)pyridin-2-yl]propyl]-2-(trifluoromethyl)benzamide] | ≥ 70% | ≥ 70% | ≥ 50% | – | –
3 | CC(C)(CNC(=O)c1ccccc1C(F)(F)F)c1ncc(C#CC2CC2)cc1Cl [1-008] | ≥ 70% | ≥ 70% | ≥ 50% | – | –
4 | O=C(NCC(c1ncc(C#CC2CC2)cc1Cl)C1CC1)c1ccccc1C(F)(F)F (centres unmarked) [1-009] | ≥ 70% | – | ≥ 50% | – | –
5 | C=C(CNC(=O)c1ccccc1C(F)(F)F)c1ncc(C#CC)cc1Cl [1-012, N-[2-[3-chloro-5-(1-propynyl)pyridin-2-yl]-2-propenyl]-2-(trifluoromethyl)benzamide] | ≥ 70% | ≥ 70% | ≥ 50% | 85 to 90 °C | –
6 | CSC(CNC(=O)c1ccccc1C(F)(F)F)c1ncc(C#CC2CC2)cc1Cl (centres unmarked) [1-021] | ≥ 70% | ≥ 70% | ≥ 50% | – | –
7 | COC(c1ncc(C#CC2CC2)cc1Cl)C(C)NC(=O)c1ccccc1C(F)(F)F (centres unmarked) [1-024] | ≥ 70% | ≥ 70% | ≥ 50% | – | ≥ 70%
8 | COC(c1ncc(C#CC(C)(C)C)cc1Cl)C(C)NC(=O)c1ccccc1C(F)(F)F (centres unmarked) [1-025] | ≥ 70% | ≥ 70% | ≥ 50% | 36 to 38 °C | ≥ 70%
9 | CC(NC(=O)c1ccccc1C(F)(F)F)C(OCc1ccccc1)c1ncc(C#CC2CC2)cc1Cl (centres unmarked) [1-031, N-[2-benzyloxy-2-[3-chloro-5-(cyclopropylethynyl)pyridin-2-yl]-1-methylethyl]-2-(trifluoromethyl)benzamide] | ≥ 70% | ≥ 70% | ≥ 50% | – | ≥ 70%
10 | O=C(NCCc1ncc(C#CC2CC2)cc1Cl)c1cccnc1C(F)F [3-001, N-[2-[3-chloro-5-(cyclopropylethynyl)pyridin-2-yl]ethyl]-2-(difluoromethyl)nicotinamide] | ≥ 70% | ≥ 70% | ≥ 50% | 114 to 117 °C | ≥ 70%
11 | CC(CNC(=O)c1cccnc1Cl)c1ncc(C#CC2CC2)cc1Cl (centres unmarked) [3-005] | ≥ 70% | ≥ 70% | ≥ 50% | – | –
12 | CC(C)(CNC(=O)c1cccnc1C(F)F)c1ncc(C#CC2CC2)cc1Cl [3-007, N-[2-[3-chloro-5-(cyclopropylethynyl)pyridin-2-yl]-2-methylpropyl]-2-(difluoromethyl)nicotinamide] | ≥ 70% | ≥ 70% | ≥ 50% | – | –
13 | COC(c1ncc(C#CC2CC2)cc1Cl)C(C)NC(=O)c1cccnc1C(F)F (centres unmarked) [3-021] | ≥ 70% | ≥ 70% | ≥ 50% | – | ≥ 70%
14 | COC(c1ncc(C#CC2CC2)cc1Cl)C(C)NC(=O)c1nccnc1C(F)(F)F (centres unmarked) [4-004] | ≥ 70% | ≥ 70% | – | – | ≥ 70%
15 | Cn1cc(C(=O)NCCc2ncc(C#CC3CC3)cc2Cl)c(C(F)F)n1 [8-001] | ≥ 70% | ≥ 70% | ≥ 50% | 96 to 98 °C | ≥ 70%
16 | Cn1cc(C(=O)NCCc2ncc(C#CC(C)(C)C)cc2Cl)c(C(F)F)n1 [8-002] | ≥ 70% | ≥ 70% | – | – | ≥ 70%
17 | CC(CNC(=O)c1cn(C)nc1C(F)F)c1ncc(C#CC2CC2)cc1Cl (centres unmarked) [8-007] | ≥ 70% | ≥ 70% | ≥ 50% | – | ≥ 70%
18 | Cn1cc(C(=O)NCC(C)(C)c2ncc(C#CC3CC3)cc2Cl)c(C(F)F)n1 [8-008] | ≥ 70% | ≥ 70% | ≥ 50% | – | –
19 | C=C(CNC(=O)c1cn(C)nc1C(F)F)c1ncc(C#CC2CC2)cc1Cl [8-011, N-[2-[3-chloro-5-(cyclopropylethynyl)pyridin-2-yl]-2-propenyl]-3-difluoromethyl-1-methyl-1H-pyrazole-4-carboxamide] | ≥ 70% | ≥ 70% | ≥ 50% | 66 to 70 °C | ≥ 70%
20 | Cn1cc(C(=O)NCC2(c3ncc(C#CC4CC4)cc3Cl)CC2)c(C(F)F)n1 [8-018, N-[[1-[3-chloro-5-(cyclopropylethynyl)pyridin-2-yl]cyclopropyl]methyl]-3-difluoromethyl-1-methyl-1H-pyrazole-4-carboxamide] | ≥ 70% | ≥ 70% | ≥ 50% | – | –
21 | COC(CNC(=O)c1cn(C)nc1C(F)F)c1ncc(C#CC2CC2)cc1Cl (centres unmarked) [8-019] | ≥ 70% | ≥ 70% | ≥ 50% | 110 to 111 °C | –
22 | COC(=O)C(CNC(=O)c1cn(C)nc1C(F)F)c1ncc(C#CC2CC2)cc1Cl (centres unmarked) [8-022, 2-[3-chloro-5-(cyclopropylethynyl)pyridin-2-yl]-3-(3-difluoromethyl-1-methyl-1H-pyrazole-4-carboxamide)propionic acid methyl ester] | ≥ 70% | ≥ 70% | – | – | ≥ 70%
23 | COC(c1ncc(C#CC2CC2)cc1Cl)C(C)NC(=O)c1cn(C)nc1C(F)F (centres unmarked) [8-028, N-[2-[3-chloro-5-(cyclopropylethynyl)pyridin-2-yl]-2-methoxy-1-methylethyl]-3-difluoromethyl-1-methyl-1H-pyrazole-4-carboxamide] | ≥ 70% | ≥ 70% | ≥ 50% | – | –
24 | COC(c1ncc(C#CC2CC2)cc1Cl)C(C)NC(=O)c1sc(C)nc1C(F)F (centres unmarked) [9-006a] | ≥ 70% | ≥ 70% | ≥ 50% | – | –
